This passage reports IC50 and half-life results from ChEMBL document CHEMBL1128100, “Synthesis and evaluation of novel daunomycin-phosphate-sulfate --glucuronide and --glucoside prodrugs for application in adept” (Bioorg Med Chem Lett, 1995).

Counter-ions that a name gives are not always drawn. A value given as a limit tells only on which side of the number the result lay.

As a reminder, the IC50 is the concentration needed to halve the response being measured. Higher therefore signals lower potency. As a reminder, the half-life is how long it takes for the measured level to halve. Low values mean rapid decline, high ones slow decline.

One series relates to MCF7. As to the kind of experiment: Antiproliferative activity of compound was tested against mammary carcinoma (MCF-7) human tumor cells. It is filed as functional, cell-based.
Another series relates to WiDr. As to the kind of experiment: Antiproliferative activity of compound was tested against colon carcinoma (WiDr) human tumor cells. It is filed as functional, cell-based.
The subject of another series is T-24. As to the kind of experiment: Antiproliferative activity of compound was tested against bladder carcinoma (T-24) human tumor cells. It is filed as functional, cell-based.
Another series has as its system IGR-37 cell line. As to the kind of experiment: Antiproliferative activity of compound was tested against melanoma (IgR-37) human tumor cells. It is filed as functional, cell-based.
The subject of a further series is A204. In words: Antiproliferative activity of compound was tested against rhabdomyosarcoma (A-204) human tumor cells. Format: functional, cell-based.
A further series deals with EVSA-T. As to the kind of experiment: Antiproliferative activity of compound was tested against mammary carcinoma (EVSAT) human tumor cells. Format: functional, cell-based.
A further series concerns A498. As to the kind of experiment: Antiproliferative activity of compound was tested against renal cancer (A-498) human tumor cells. It is filed as functional, cell-based.
In another series the test system is M19-MEL. In words: Antiproliferative activity of compound was tested against melanoma (M-19) human tumor cells. Format: functional, cell-based.
The test system of the next series is IGROV-1. As to the kind of experiment: Antiproliferative activity of compound was tested against ovarian carcinoma (IGROV) human tumor cells. Format: functional, cell-based.
A further series has as its system beta-glucosidase. As to the kind of experiment: Compound was tested for enzyme activation with 0.3 U/mL beta-glucosidase by measuring its half-life. Conditions: beta-glucosidase (isolated enzyme).
For a further series, the system named is beta-glucuronidase. As to the kind of experiment: Compound was tested for enzyme activation with 0.03 U/mL beta-glucuronidase by measuring its half-life. Conditions: beta-glucuronidase (isolated enzyme).

Consider `COc1cccc2c1C(=O)c1c(O)c3c(c(O)c1C2=O)C[C@@](O)(C(C)=O)C[C@@H]3O[C@H]1C[C@@H](N)[C@H](OP(=O)(O)O)[C@H](C)O1`, for which the IC50 in the series with MCF7 (Homo sapiens, MCF7) turned out to be 89 µM; with WiDr (Homo sapiens, WiDr), 58 µM; with T-24 it was 3 µM; in the series with IGR-37 cell line it was 45 µM; in the series with A204 it was 17 µM.

As for `COc1cccc2c1C(=O)c1c(O)c3c(c(O)c1C2=O)C[C@@](O)(C(C)=O)C[C@@H]3O[C@H]1C[C@@H](NP(=O)(O)O)[C@H](O)[C@H](C)O1`, the IC50 worked out at 370 µM in the series with MCF7 (Homo sapiens, MCF7); 10 µM in the series on WiDr (Homo sapiens, WiDr); 2 µM with T-24; 96 µM with IGR-37 cell line; 17 µM in the series on A204.

Take `COc1cccc2c1C(=O)c1c(O)c3c(c(O)c1C2=O)C[C@@](O)(C(C)=O)C[C@@H]3O[C@H]1C[C@H](N)[C@H](O)[C@H](C)O1` [DAUNORUBICIN HYDROCHLORIDE]: the IC50 in the series with MCF7 (Homo sapiens, MCF7) amounted to 2 µM; in the series with EVSA-T (Homo sapiens, EVSA-T) it was 2 µM; in the series on WiDr (Homo sapiens, WiDr), 7 µM; in the series with A498 (Homo sapiens, A498) it was 3 µM; in the series with M19-MEL (Homo sapiens, M19-MEL), 2 µM; with IGROV-1 (Homo sapiens, IGROV-1), 18 µM. The values for the IC50 in the series with T-24, with IGR-37 cell line and in the series on A204 were 2 µM, 11 µM and 3 µM, respectively.

Take `COc1cccc2c1C(=O)c1c(O)c3c(c(O)c1C2=O)C[C@@](O)(C(C)=O)C[C@@H]3O[C@H]1C[C@@H](NC(=O)O[C@@H]2O[C@@H](C(=O)O)[C@@H](O)[C@H](O)[C@@H]2O)[C@H](O)[C@H](C)O1`: the IC50 amounted to 125 µM in the series on MCF7 (mcf7); 280 µM in the series with EVSA-T (evsa-t); 370 µM with WiDr (widr); 250 µM with A498 (a498); 200 µM in the series with M19-MEL (m19-mel); 520 µM in the series with IGROV-1 (igrov-1). The half-life in the series on beta-glucosidase was greater than 133 h.

For `COc1cccc2c1C(=O)c1c(O)c3c(c(O)c1C2=O)C[C@@](O)(C(C)=O)C[C@@H]3O[C@H]1C[C@@H](NC(=O)O[C@@H]2O[C@@H](C(=O)[O-])[C@@H](O)[C@H](O)[C@@H]2O)[C@H](O)[C@H](C)O1.[Na+]`, the IC50 in the series with MCF7 (mcf7) came to 11200 µM; in the series with EVSA-T (evsa-t) it was 13500 µM; with A498 (a498), 12100 µM; with M19-MEL (m19-mel), 15800 µM; with IGROV-1 (igrov-1) it was 36900 µM. Moreover, in the series with beta-glucuronidase, the half-life was 137 h.

As to `COc1cccc2c1C(=O)c1c(O)c3c(c(O)c1C2=O)C[C@@](O)(C(C)=O)C[C@@H]3O[C@H]1C[C@@H](NS(=O)(=O)O)[C@H](O)[C@H](C)O1`, the IC50 worked out at 10400 µM in the series on MCF7 (Homo sapiens, MCF7) and 4.9 µM in the series with A204.

As to `COc1cccc2c1C(=O)c1c(O)c3c(c(O)c1C2=O)C[C@@](O)(C(C)=O)C[C@@H]3O[C@H]1C[C@@H](N)[C@H](OS(=O)(=O)O)[C@H](C)O1`, the IC50 with MCF7 (Homo sapiens, MCF7) stood at 870 µM; in the series with T-24, 5500 µM; in the series with IGR-37 cell line it was 3000 µM; in the series on A204, 1.3 µM.
